Measurements from PubChem BioAssay AID1259407 (Chemical Carcinogenesis Research Information System (CCRIS), 2018).
Calls of active or inactive are those of the source. No rule for the calls is given here.

System: CCRIS mutagenicity, Ames/micronucleus/aberration tests
Test: CCRIS mutagenicity studies
[1] = Test System: AMES SALMONELLA TYPHIMURIUM, Strain/Indicator: TA97, Metabolic Activation: NONE, Method: PREINCUBATION
[2] = Test System: AMES SALMONELLA TYPHIMURIUM, Strain/Indicator: TA98, Metabolic Activation: NONE, Method: PREINCUBATION
[3] = Test System: AMES SALMONELLA TYPHIMURIUM, Strain/Indicator: TA100, Metabolic Activation: NONE, Method: PREINCUBATION
[4] = Test System: AMES SALMONELLA TYPHIMURIUM, Strain/Indicator: TA102, Metabolic Activation: NONE, Method: PREINCUBATION
[5] = Test System: AMES SALMONELLA TYPHIMURIUM, Strain/Indicator: TA98, Metabolic Activation: NONE, Method: STANDARD PLATE
[6] = Test System: AMES SALMONELLA TYPHIMURIUM, Strain/Indicator: TA100, Metabolic Activation: NONE, Method: STANDARD PLATE

c1ccsc1
mutagenic call (Test System: AMES SALMONELLA TYPHIMURIUM, Strain/Indicator: TA97, Metabolic Activation: HAMSTER, LIVER, AROCLOR 1254 (10%), Method: PREINCUBATION): inactive; negative | mutagenic call (Test System: AMES SALMONELLA TYPHIMURIUM, Strain/Indicator: TA97, Metabolic Activation: HAMSTER, LIVER, S-9, AROCLOR 1254 (30%), Method: PREINCUBATION): inactive; negative | mutagenic call [1]: inactive; negative | mutagenic call (Test System: AMES SALMONELLA TYPHIMURIUM, Strain/Indicator: TA97, Metabolic Activation: RAT, LIVER, S-9, AROCLOR 1254 (10%), Method: PREINCUBATION): inactive; negative | mutagenic call (Test System: AMES SALMONELLA TYPHIMURIUM, Strain/Indicator: TA97, Metabolic Activation: RAT, LIVER, S-9, AROCLOR 1254 (30%), Method: PREINCUBATION): inactive; negative | mutagenic call (Test System: AMES SALMONELLA TYPHIMURIUM, Strain/Indicator: TA98, Metabolic Activation: HAMSTER, LIVER, S-9, AROCLOR 1254 (10%), Method: PREINCUBATION): inactive; negative | mutagenic call (Test System: AMES SALMONELLA TYPHIMURIUM, Strain/Indicator: TA98, Metabolic Activation: HAMSTER, LIVER, S-9, AROCLOR 1254 (30%), Method: PREINCUBATION): inactive; negative | mutagenic call [2]: inactive; negative | mutagenic call (Test System: AMES SALMONELLA TYPHIMURIUM, Strain/Indicator: TA98, Metabolic Activation: RAT, LIVER, S-9, AROCLOR 1254 (10%), Method: PREINCUBATION): inactive; negative | mutagenic call (Test System: AMES SALMONELLA TYPHIMURIUM, Strain/Indicator: TA98, Metabolic Activation: RAT, LIVER, S-9, AROCLOR 1254 (30%), Method: PREINCUBATION): inactive; negative | mutagenic call (Test System: AMES SALMONELLA TYPHIMURIUM, Strain/Indicator: TA98, Metabolic Activation: RAT, LIVER, S-9, AROCLOR 1254, Method: PREINCUBATION): inactive; negative | mutagenic call (Test System: AMES SALMONELLA TYPHIMURIUM, Strain/Indicator: TA100, Metabolic Activation: HAMSTER, LIVER, S-9, AROCLOR 1254 (10%), Method: PREINCUBATION): inactive; negative | mutagenic call (Test System: AMES SALMONELLA TYPHIMURIUM, Strain/Indicator: TA100, Metabolic Activation: HAMSTER, LIVER, S-9, AROCLOR 1254 (30%), Method: PREINCUBATION): inactive; negative | mutagenic call [3]: inactive; negative | mutagenic call (Test System: AMES SALMONELLA TYPHIMURIUM, Strain/Indicator: TA100, Metabolic Activation: RAT, LIVER, S-9, AROCLOR 1254 (10%), Method: PREINCUBATION): inactive; negative | mutagenic call (Test System: AMES SALMONELLA TYPHIMURIUM, Strain/Indicator: TA100, Metabolic Activation: RAT, LIVER, S-9, AROCLOR 1254 (30%), Method: PREINCUBATION): inactive; negative | mutagenic call (Test System: AMES SALMONELLA TYPHIMURIUM, Strain/Indicator: TA100, Metabolic Activation: RAT, LIVER, S-9, AROCLOR 1254, Method: PREINCUBATION): inactive; negative | mutagenic call [4]: inactive; negative | mutagenic call (Test System: AMES SALMONELLA TYPHIMURIUM, Strain/Indicator: TA102, Metabolic Activation: RAT, LIVER, S-9, AROCLOR 1254, Method: PREINCUBATION): inactive; negative | mutagenic call (Test System: AMES SALMONELLA TYPHIMURIUM, Strain/Indicator: TA1535, Metabolic Activation: HAMSTER, LIVER, S-9, AROCLOR 1254 (10%), Method: PREINCUBATION): inactive; negative | mutagenic call (Test System: AMES SALMONELLA TYPHIMURIUM, Strain/Indicator: TA1535, Metabolic Activation: HAMSTER, LIVER, S-9, AROCLOR 1254 (30%), Method: PREINCUBATION): inactive; negative | mutagenic call (Test System: AMES SALMONELLA TYPHIMURIUM, Strain/Indicator: TA1535, Metabolic Activation: NONE, Method: PREINCUBATION): inactive; negative | mutagenic call (Test System: AMES SALMONELLA TYPHIMURIUM, Strain/Indicator: TA1535, Metabolic Activation: RAT, LIVER, S-9, AROCLOR 1254 (10%), Method: PREINCUBATION): inactive; negative | mutagenic call (Test System: AMES SALMONELLA TYPHIMURIUM, Strain/Indicator: TA1535, Metabolic Activation: RAT, LIVER, S-9, AROCLOR 1254 (30%), Method: PREINCUBATION): inactive; negative | mutagenic call (Test System: AMES SALMONELLA TYPHIMURIUM, Strain/Indicator: TA1537, Metabolic Activation: HAMSTER, LIVER, S-9, AROCLOR 1254 (10%), Method: PREINCUBATION): inactive; negative | mutagenic call (Test System: AMES SALMONELLA TYPHIMURIUM, Strain/Indicator: TA1537, Metabolic Activation: NONE, Method: PREINCUBATION): inactive; negative | mutagenic call (Test System: AMES SALMONELLA TYPHIMURIUM, Strain/Indicator: TA1537, Metabolic Activation: RAT, LIVER, S-9, AROCLOR 1254 (10%), Method: PREINCUBATION): inactive; negative | mutagenic call (Test System: Mouse lymphoma, Strain/Indicator: L5178Y (tk+/tk-), Metabolic Activation: None, Method: Suspension/plate): active; positive | mutagenic call (Test System: Mouse lymphoma, Strain/Indicator: L5178Y (tk+/tk-), Metabolic Activation: Rat, Liver, S-9, Aroclor 1254, Method: Suspension/plate): active; inconclusive (previous evaluation positive)

COc1cc2nc3occc3c(OC)c2cc1OC
mutagenic call (Test System: AMES SALMONELLA TYPHIMURIUM, Strain/Indicator: TA98, Metabolic Activation: RAT, LIVER, S-9, PHENOBARBITAL, Method: STANDARD PLATE): active; positive | mutagenic call (Test System: AMES SALMONELLA TYPHIMURIUM, Strain/Indicator: TA100, Metabolic Activation: RAT, LIVER, S-9, PHENOBARBITAL, Method: STANDARD PLATE): active; positive

O=[N+]([O-])c1cc(-c2cccc([N+](=O)[O-])c2O)ccc1O
mutagenic call [2]: inactive; negative

Nc1c(C(=O)N/N=C/c2ccccc2)[nH]c2ccccc12
mutagenic call [1]: inactive; negative | mutagenic call (Test System: AMES SALMONELLA TYPHIMURIUM, Strain/Indicator: TA97, Metabolic Activation: S-9 (10%), Method: PREINCUBATION): inactive; negative | mutagenic call [2]: inactive; negative | mutagenic call (Test System: AMES SALMONELLA TYPHIMURIUM, Strain/Indicator: TA98, Metabolic Activation: S-9 (10%), Method: PREINCUBATION): inactive; negative | mutagenic call [3]: inactive; negative | mutagenic call (Test System: AMES SALMONELLA TYPHIMURIUM, Strain/Indicator: TA100, Metabolic Activation: S-9 (10%), Method: PREINCUBATION): inactive; negative | mutagenic call [4]: inactive; negative | mutagenic call (Test System: AMES SALMONELLA TYPHIMURIUM, Strain/Indicator: TA102, Metabolic Activation: S-9 (10%), Method: PREINCUBATION): inactive; negative

C=C1C[C@@]23CC[C@H]4[C@@](C)(CCC[C@@]4(C)C(=O)O)[C@@H]2CC[C@@H]1C3
mutagenic call (Test System: AMES SALMONELLA TYPHIMURIUM, Strain/Indicator: TM677, Metabolic Activation: RAT, LIVER, S-9, AROCLOR 1254, Method: PREINCUBATION): inactive; negative

O=C/C(CCl)=C(/Cl)C(=O)O
mutagenic call [2]: active; positive | mutagenic call [3]: active; positive | mutagenic call (Test System: AMES SALMONELLA TYPHIMURIUM, Strain/Indicator: TA104, Metabolic Activation: NONE, Method: PREINCUBATION): active; positive

CC(C)(C)c1cc(-c2ccccc2)ccc1N=O
mutagenic call [5]: active; positive | mutagenic call (Test System: AMES SALMONELLA TYPHIMURIUM, Strain/Indicator: TA98, Metabolic Activation: S-9, Method: STANDARD PLATE): active; positive | mutagenic call [6]: active; positive | mutagenic call (Test System: AMES SALMONELLA TYPHIMURIUM, Strain/Indicator: TA100, Metabolic Activation: S-9, Method: STANDARD PLATE): active; positive

CC(=O)Nc1ccc(Cc2ccc(NC(C)=O)cc2)cc1
mutagenic call [5]: inactive; negative | mutagenic call (Test System: AMES SALMONELLA TYPHIMURIUM, Strain/Indicator: TA98, Metabolic Activation: RAT, LIVER, S-9, PCB, Method: STANDARD PLATE): inactive; negative | mutagenic call [6]: inactive; negative | mutagenic call (Test System: AMES SALMONELLA TYPHIMURIUM, Strain/Indicator: TA100, Metabolic Activation: RAT, LIVER, S-9, PCB, Method: STANDARD PLATE): inactive; negative
